Measurements reported in US11744830B2, “Ameliorative agent for cytokine release syndrome and so on” (TORII PHARMACEUTICAL CO., LTD., priority 2018, dated 2023).
Structures can show the parent of a compound that is named as a salt.

Tests used:
IL-6 production = assay: CRS toxicity evaluation system using CAR-T cells: IL-6; format: cell-based, human; conditions: for IC50: Homo sapiens, Monocyte, CAR-T cells, target cells and monocytes, 72 hours
Protocol: (§1) The supernatants were collected at 72 hours after the initiation of culture, and various cytokines in each supernatant were measured by FACS multiplex assay.

MCP-1 production = assay: CRS toxicity evaluation system using CAR-T cells: MCP-1; format: cell-based, human; conditions: Homo sapiens, Monocyte; CAR-T cells, target cells and monocytes, 72 hours
Protocol: as §1

[1] = test system: OPN production from CD14^+ cells; assay: LPS stimulation-induced OPN production in CD14^+ cells; format: cell-based, human; conditions: for IC50: Homo sapiens, 72 h, LPS 500 ng/mL, 3 days
Protocol: Cryopreserved PBMCs were quickly thawed in a 37° C. thermostat and added to a tube containing medium. After centrifugation (at room temperature at 300 g for 10 minutes) to remove the supernatant, the cells were suspended again in the medium, followed by counting the number of viable cells. The cell suspension was centrifuged (at room temperature at 300 g for 10 minutes) to remove the supernatant, followed by addition of MACS Buffer to suspend the cells, to which Human CD14 MicroBeads were further added. After being allowed to stand on ice for 15 minutes, the cell suspension was diluted with MACS Buffer and centrifuged (at room temperature at 300 g for 10 minutes) to remove the supernatant. MACS Buffer was added to the tube, and the cells were suspended and then applied to a separatory column to separate CD14^+ cells. The CD14^+ cell fraction was diluted with the medium and then centrifuged (at room temperature at 300 g for 10 minutes). The supernatant was removed and the cells were suspended in the medium (1 mL), followed by counting the number of viable cells. The cell suspension was adjusted with the medium to 2.4×10^5 or 3×10^5 cells/mL and seeded in a 96-well plate (2.4×10^4 cells/well), which was then allowed to stand in a CO2 incubator for 1 to 2 hours.
The collected culture supernatants were quantified for OPN using Human OPN DuoSet ELISA.

IL-18 production = assay: CRS toxicity evaluation system using CAR-T cells: IL-18; format: cell-based; conditions: Homo sapiens, Monocyte, target cells and monocytes, 72 hours, reference data because of low production
Protocol: as §1

[2] = test system: IFN-γ production from CD8^+ T cells; assay: T-cell stimulation bead-induced IFN-γ production in CD8^+ T cells; format: cell-based, human; conditions: CD3/CD28 stimulation, 3 days
Protocol: Cryopreserved PBMCs were quickly thawed in a 37° C. thermostat and added to a tube containing medium. After centrifugation (at room temperature at 300 g for 10 minutes) to remove the supernatant, the cells were suspended in the medium, a portion of which was then mixed with a trypan blue solution to count the number of viable cells. The cell suspension was centrifuged (at room temperature at 300 g for 10 minutes) to remove the supernatant, followed by addition of MACS Buffer in a volume of 80 μL per 1×10^7 cells to suspend the cells, to which Human CD8 MicroBeads (20 μL) were further added. After being allowed to stand on ice for 15 minutes, the cell suspension was diluted with MACS Buffer (2 mL) and centrifuged (at room temperature at 300 g for 10 minutes) to remove the supernatant.
MACS Buffer (500 μL) was added to the tube, and the cells were suspended and then applied to a separatory column to separate CD8^+ cells. The CD8^+ cell fraction was diluted to 15 mL with the medium and then centrifuged (at room temperature at 300 g for 10 minutes). The supernatant was removed and the cells were suspended in the medium (1 mL), followed by counting the number of viable cells. The cell suspension adjusted with the medium to 1×10^6 cells/mL was seeded in a 96-well plate in a volume of 100 μL/well (1×10^5 cells/well) and allowed to stand in a CO2 incubator for 1 to 2 hours.
The collected culture supernatants were quantified for IFN-γ using Human IFN-γ DuoSet ELISA.

IL-1β production = assay: CRS toxicity evaluation system using CAR-T cells: IL-1β; format: cell-based, human; conditions: for IC50: Homo sapiens, Monocyte, CAR-T cells, target cells and monocytes, 72 hours
Protocol: as §1

IFN-γ production = assay: CRS toxicity evaluation system using CAR-T cells: IFN-γ; format: cell-based; conditions: Homo sapiens, Monocyte, target cells and monocytes, 72 hours
Protocol: as §1

[3] = test system: IFN-γ production from PBMCs; assay: T-cell stimulation bead- and LPS stimulation-induced CRS toxicity evaluation system in PBMCs: IFN-γ; format: cell-based, human; conditions: for IC50: Homo sapiens, PBMC, 72 h, PBMCs, CD3/CD28 + LPS, 3 days
Protocol: Cryopreserved PBMCs were quickly thawed in a 37° C. thermostat and added to a tube containing medium. After centrifugation (at room temperature at 300 g for 10 minutes) to remove the supernatant, the cells were suspended again in the medium (10 mL), followed by counting the number of viable cells. After centrifugation (at room temperature at 300 g for 10 minutes) to remove the supernatant, the medium was added to suspend the cells at 1×10^6 cells/mL. This cell suspension was seeded in a 96-well plate in a volume of 100 μl/well (1×10^5 cells/well) and allowed to stand in a CO2 incubator for 1 to 2 hours.
The cells were cultured in a CO2 incubator for 3 days to collect the culture supernatants.
The collected culture supernatants were quantified for IFN-γ and IL-6 using Human IFN-γ DuoSet ELISA and Human IL-6 DuoSet ELISA.

[4] = test system: IL-6 production from PBMCs; assay: LPS stimulation-induced IL-6 production in PBMCs; format: cell-based; conditions: Homo sapiens, PBMC, 72 h, LPS 3 ng/mL, 3 days
Protocol: Cryopreserved PBMCs were quickly thawed in a 37° C. thermostat and added to a tube containing medium. After centrifugation (at room temperature at 300 g for 10 minutes) to remove the supernatant, the cells were suspended again in the medium (10 mL), followed by counting the number of viable cells. After centrifugation (at room temperature at 300 g for 10 minutes) to remove the supernatant, the medium was added to suspend the cells at 1×10^6 cells/mL. This cell suspension was seeded in a 96-well plate in a volume of 100 μL/well (1×10^5 cells/well). […] The cells were cultured in a CO2 incubator for 3 days to collect the culture supernatants.
The collected culture supernatants were quantified for IL-6 using Human IL-6 DuoSet ELISA.

IL-8 production = assay: CRS toxicity evaluation system using CAR-T cells: IL-8; format: cell-based, human; conditions: for IC50: Homo sapiens, Monocyte, CAR-T cells, target cells and monocytes, 72 hours
Protocol: as §1

TNF-α production = assay: CRS toxicity evaluation system using CAR-T cells: TNF-α; format: cell-based, human; conditions: for IC50: Homo sapiens, Monocyte, CAR-T cells, target cells and monocytes, 72 hours
Protocol: as §1

[5] = CRS toxicity evaluation system using CAR-T cells

IC50 [2] [nM] | Structure (SMILES) | suppressive effect on IL-6 production (IL-6 production; [5]) | IC50 (IL-6 production) [nM] | IC50 (MCP-1 production) [nM] | IC50 [1] [nM] | suppressive effect on OPN production ([1]; LPS) | IC50 (IL-18 production) [nM] | IC50 ([2]; Homo sapiens, T-cell, 72 h) [nM] | suppressive effect on IL-1β (IL-1β production; [5]) | IC50 (IL-1β production) [nM] | IC50 (IFN-γ production) [nM] | IC50 [3] [nM] | suppression of IFN-γ production versus IL-6 production ([3]; PBMCs co-stimulated with T-cell stimulation beads and LPS) | IC50 [4] [nM] | suppressive effect on IL-8 production (IL-8 production; [5]) | IC50 (IL-8 production) [nM] | suppressive effect on TNF-α (TNF-α production; [5]) | IC50 (TNF-α production) [nM]
149 | C[C@]12C=CC(=O)C=C1CC[C@@H]1[C@@H]2[C@@H](O)C[C@@]2(C)[C@H]1CC[C@]2(O)C(=O)CO [PSL, Prednisolone] | no suppressive effect | > 10000 | 71800 | > 30000 | no suppressive effect | > 100000 | 149 | no suppressive effect | > 100000 | 880 | 53 | more strongly suppressed IFN-γ production than IL-6 production | 176 | no suppressive effect | > 100000 | no suppressive effect | > 100000
– | CCOC(=O)[C@H](Cc1ccccc1)NC(=O)c1cc(Cl)c(OCCN2CCN(C)CC2)c(Cl)c1O [JTE-607, (−)-ethyl N-{3,5-dichloro-2-hydroxy-4-[2-(4-methylpiperazin-1-yl)ethoxy]benzoyl}-L-phenylalaninate dihydrochloride] | – | 188 | 37.6 | 132 | – | 871 | > 300 | – | 359 | 598 | 50.1 | – | 17.7 | – | 154 | – | 413
